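Cells were grown in 96-well plates and exposed to each compound for 48 hours at five concentrations; endpoints were interpolated linearly between bracketing concentrations, or set to the highest concentration if not reached. GI50 = concentration required for 50% inhibition of growth.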 Active and inactive are the calls of the source. Cut-off read from the data, not from the text of the source: active = GI50 up to about 1.1 µM and inactive = higher.
How the values were obtained:
Assay in all cases: NCI tumour cell line growth inhibition, 48 h
SW-620 = test system: SW-620
UO-31 = test system: UO-31
OVCAR-5 = test system: OVCAR-5
SF-295 = test system: SF-295
SNB-19 = test system: SNB-19
OVCAR-4 = test system: OVCAR-4
SK-MEL-28 = test system: SK-MEL-28
HOP-62 = test system: HOP-62
CCRF-CEM = test system: CCRF-CEM
SN12C = test system: SN12C
HCT-15 = test system: HCT-15
LOX IMVI = test system: LOX IMVI
UACC-257 = test system: UACC-257
EKVX = test system: EKVX
MDA-MB-231 = test system: MDA-MB-231
HOP-92 = test system: HOP-92
UACC-62 = test system: UACC-62
DU-145 = test system: DU-145
NCI-H460 = test system: NCI-H460
PC-3 = test system: PC-3
Malme-3M = test system: Malme-3M
SNB-75 = test system: SNB-75
T47D = test system: T47D
HL-60 = test system: HL-60
BT-549 = test system: BT-549
NCI-H23 = test system: NCI-H23
HCC 2998 = test system: HCC 2998
A498 = test system: A498
KM12 = test system: KM12
SK-MEL-5 = test system: SK-MEL-5
MOLT-4 = test system: MOLT-4
SF-268 = test system: SF-268
NCI-H226 = test system: NCI-H226
SK-MEL-2 = test system: SK-MEL-2
RXF 393 = test system: RXF 393
RPMI-8226 = test system: RPMI-8226
COLO 205 = test system: COLO 205
TK-10 = test system: TK-10
Hs-578T = test system: Hs-578T
K562 = test system: K562
MDA-MB-435 = test system: MDA-MB-435
M14 = test system: M14
U-251 = test system: U-251
HT-29 = test system: HT-29
NCI-H522 = test system: NCI-H522
OVCAR-3 = test system: OVCAR-3
MCF7 = test system: MCF7
786-0 = test system: 786-0
CAKI-1 = test system: CAKI-1
ACHN = test system: ACHN
OVCAR-8 = test system: OVCAR-8
MDA-N = test system: MDA-N
IGROV-1 = test system: IGROV-1
SK-OV-3 = test system: SK-OV-3
NCI/ADR-RES = test system: NCI/ADR-RES
HCT-116 = test system: HCT-116
SF-539 = test system: SF-539
A549 = test system: A549

COc1ccc(-c2c(-c3ccccc3)c(C)nc3[nH]c(=S)[nH]c(=S)c23)cc1OC
GI50 (SW-620): 61.7 µM (inactive)
GI50 (UO-31): 21.6 µM (inactive)
GI50 (OVCAR-5): 64.4 µM (inactive)
GI50 (SF-295): 42.1 µM (inactive)
GI50 (SNB-19): 60.3 µM (inactive)
GI50 (OVCAR-4): > 100 µM (inactive)
GI50 (SK-MEL-28): 22.1 µM (inactive)
GI50 (HOP-62): 33.1 µM (inactive)
GI50 (CCRF-CEM): 24.7 µM (inactive)
GI50 (SN12C): 21.6 µM (inactive)
GI50 (HCT-15): 30.9 µM
GI50 (LOX IMVI): 28.2 µM (inactive)
GI50 (UACC-257): 36.6 µM (inactive)
GI50 (EKVX): 54.8 µM (inactive)
GI50 (MDA-MB-231): 26.9 µM (inactive)
GI50 (HOP-92): 33.8 µM (inactive)
GI50 (UACC-62): 16.1 µM (inactive)
GI50 (DU-145): 44.4 µM (inactive)
GI50 (NCI-H460): 24.3 µM (inactive)
GI50 (PC-3): 25.1 µM (inactive)
GI50 (Malme-3M): 30.8 µM (inactive)
GI50 (SNB-75): 42 µM (inactive)
GI50 (T47D): 38.3 µM (inactive)
GI50 (HL-60): 31.8 µM (inactive)
GI50 (BT-549): 42.2 µM (inactive)
GI50 (NCI-H23): 47.4 µM (inactive)
GI50 (HCC 2998): 37.6 µM (inactive)
GI50 (A498): 28.2 µM (inactive)
GI50 (KM12): 18.5 µM (inactive)
GI50 (SK-MEL-5): 28.1 µM (inactive)
GI50 (MOLT-4): 12 µM (inactive)
GI50 (SF-268): 23.9 µM (inactive)
GI50 (NCI-H226): 38 µM (inactive)
GI50 (SK-MEL-2): 20.4 µM (inactive)
GI50 (RXF 393): 35.8 µM (inactive)
GI50 (RPMI-8226): 21.6 µM (inactive)
GI50 (COLO 205): 25.3 µM (inactive)
GI50 (TK-10): 45.7 µM (inactive)
GI50 (Hs-578T): 35.6 µM (inactive)
GI50 (K562): 31.2 µM (inactive)
GI50 (MDA-MB-435): 26.9 µM (inactive)
GI50 (M14): 36.1 µM (inactive)
GI50 (U-251): 33.4 µM (inactive)
GI50 (HT-29): 41 µM (inactive)
GI50 (NCI-H522): 27.1 µM (inactive)
GI50 (OVCAR-3): 20.3 µM (inactive)
GI50 (MCF7): 33.8 µM (inactive)
GI50 (786-0): 35.6 µM (inactive)
GI50 (CAKI-1): 47 µM (inactive)
GI50 (ACHN): 30.3 µM (inactive)
GI50 (OVCAR-8): 42 µM (inactive)
GI50 (MDA-N): 30.1 µM (inactive)
GI50 (IGROV-1): 36.3 µM (inactive)
GI50 (SK-OV-3): 37 µM (inactive)
GI50 (NCI/ADR-RES): 40.4 µM (inactive)
GI50 (HCT-116): 22 µM (inactive)
GI50 (SF-539): 19.8 µM (inactive)
GI50 (A549): 30.3 µM (inactive)

Source: ChEMBL document CHEMBL1201862, “PubChem BioAssay data set” (2004)
